# Patent US10370391B2, “Hydrogen peroxide-activable, anti-oxidant compounds and methods using same” (Beth Israel Deaconess Medical Center, Inc., priority 2014, dated 2019)
# Columns and labels:
# [1] = H2O2 scavenging by peroxalate chemiluminescence (diphenyl oxalate, rubrene)
# Experimental: FIG. 21 is a bar graph illustrating H2O2-scavenging by BRAP-encapsulated PLGA microparticles. BRAP-encapsulated PLGA microparticles were incubated in H2O2 solution (10 μM) for 10 minutes, and the level of H2O2 was determined by peroxalate chemiluminesce using rubrene (1 mg) and diphenylperoxalate (10 mg).
# (§1) Without wishing to be limited by any theory, BRAP could scavenge H2O2 during its H2O2-mediated boronate oxidation. This possibility was investigated using peroxalate chemiluminescence. Peroxalate chemiluminescence has been used as a versatile tool for the detection of a variety of chemical species including fluorescent molecules and H2O2 because of its excellent specificity and simplicity (Hadd, et al., 1999, J. Chem. Educ. 76:1237; Lee, et al., 2011, Bull. Korean Chem. Soc. 32:2187). […] A majority of H2O2 was scavenged by the same concentration of BRAP within 1 minutes.
# The ability of the boronate compound to scavenge H2O2 was evaluated by measuring the chemiluminescence intensity after the reaction with diphenyl oxalate solution including rubrene. The boronate (1 μM, or 10 μM) was added in the H2O2 solution (10 μM). After 1 min reaction with H2O2, diphenyl oxalate solution was added to the H2O2 solution, and the chemiluminescence intensity was measured by using a luminometer (Femtomaster FB 12, Zylux Corporation, TN, US; FIG. 13).
# The ability of BRAP to scavenge H2O2 was evaluated by measuring the chemiluminescence intensity after the reaction with diphenyl oxalate solution including rubrene. BRAP (1 μM, 5 μM, 10 μM, 20 μM) was added in the H2O2 solution (10 μM). After 1, 5 or 10 min reaction with H2O2, diphenyl oxalate solution was added to the H2O2 solution, and the chemiluminescence intensity was measured by using a luminometer (Femtomaster FB 12, Zylux Corporation, TN, US).
# [2] = Stability of BRAP under acidic condition (1H NMR); assay type: physicochemical; settings: pH 3.0, 72 hours of incubation
# Experimental: FIG. 2, comprising FIGS. 2A-2C, illustrates H2O2 scavenging effects of BRAP. FIG. 2A: Exemplary change of UV-absorbance of BRAP in the presence of H2O2. FIG. 2B: H2O2 scavenging by various concentrations of BRAP. H2O2 solution (10 μM) was mixed with HBA or BRAP for 1 min, and the chemiluminescent intensity was measured by adding diphenyl oxalate (10 mg) and rubrene (1 mg). *p<0.01, **p<0.001 relative to H2O2 only group (n=4/group). FIG. 2C: ^1H NMR spectrum of BRAP under acidic condition (pH=3.0) after 72 h.
# as §1
compound,measurement,setting,value
"CC1(CO)COB(c2ccc(CO)cc2)OC1 [BRAP, (4-(5-(hydroxymethyl)-5-methyl-1,3,2-dioxaborinan-2-yl)phenyl)methanol]",chemiluminescence intensity (H2O2 scavenging),"[1]; H2O2 solution 10 μM, BRAP, concentration-dependent",significant reduction in chemiluminescence intensity
same,time in which a majority of H2O2 was scavenged,[1]; same concentration of BRAP as H2O2,≤ 1 min
same,stability in acidic environment,[2],not influenced
